From article PMC12974487, “Inhibition of FicD-mediated AMPylation and deAMPylation by isoprenoid diphosphates” (Proceedings of the National Academy of Sciences of the …, 2026)

Target: T1, FicD^L258D (Homo sapiens, UniProt Q9BVA6, L258D)
T1 construct: soluble ER luminal domain (residues 105 to 458) of wild-type human FicD and three mutants; 6xHis-Sumo (N, cleaved yes); made in house; host or cells: Rosetta(DE3) E. coli
T1 sequence (Q9BVA6 105-458 L258D): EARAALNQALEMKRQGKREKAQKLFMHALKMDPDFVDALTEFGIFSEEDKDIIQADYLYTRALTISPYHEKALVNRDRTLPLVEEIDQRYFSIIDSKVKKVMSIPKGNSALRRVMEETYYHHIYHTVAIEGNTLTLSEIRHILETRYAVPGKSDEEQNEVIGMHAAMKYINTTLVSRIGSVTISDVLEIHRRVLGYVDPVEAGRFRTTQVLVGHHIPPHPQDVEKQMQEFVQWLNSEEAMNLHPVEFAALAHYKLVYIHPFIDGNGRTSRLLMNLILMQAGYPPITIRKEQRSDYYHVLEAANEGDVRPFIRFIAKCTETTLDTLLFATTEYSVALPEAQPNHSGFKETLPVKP
Test: Isothermal titration calorimetry (ITC) with Δ104hFicD^L258D
Format: binding
Conditions: 4 mM MgCl2
Source text: To further support this notion, we used Isothermal Titration Calorimetry (ITC) to determine the Kd of FPP binding. […] In these experiments, the interaction between FPP and Mg^2+ generated endothermic peaks that interfered with detecting the interaction between FPP, Mg^2+, and FicD (Fig. 3, Upper). The stoichiometry of FPP binding to FicD was consistently <0.85, which may indicate that Mg^2+ was not saturating. Because the endothermic interaction between Mg^2+ and FPP limited the quantity of MgCl2 we could add, the measured Kd could be larger than the true value.
Fig. 3. ITC with FicD and Farnesyl-pyrophosphate. Representative ITC thermogram for FPP binding to Δ104hFicD^L258D (Upper). […] Dissociation constants (Kd) of individual replicates and global fitting of triplicate isotherms are reported with 1σ error intervals in parenthesis. TEXT PRINTED IN THE PICTURE: no label printed: Kd (nM): 32.3 (15.6, 54.9) (Replicate 1); Kd (nM): 25.6 (10.1, 47.7) (Replicate 2); Kd (nM): 45.2 (29.4, 68.8) (Replicate 3); Kd (nM): 60.3 (23.1, 126.3) (Global) DOUBTS OF THE COPYIST ABOUT THIS PICTURE: The picture prints no substance label; the table rows are replicates and a global fit of one measurement, so all four Kd values are given under one unlabeled substance. […]
Isothermal Titration Calorimetry
Proteins were dialyzed against 25mM HEPES pH 7.4/100mM KCl/10% glycerol prior to titration.
Dialyzed proteins were then spun down at 21,000G for 15 minutes at 4C to remove trace insoluble material. The protein concentration was measured spectrophotometrically and then diluted to working concentration with 25mM HEPES pH 7.4/100mM KCl/10% glycerol. MgCl2 was added to proteins to a final concentration of 4mM. ITC experiments were performed in a Micro-Cal PEAQ-ITC (Malvern Panalytical, Worcestershire, UK) calorimeter with a stirred 206.2 μL reaction cell held at 20 °C. 250μM FPP was titrated into 25uM Δ104hFicL258D with 750rpm stirring. The first injection was 0.5 μL, followed by twenty 1.9 μL injections. ITC data were integrated and baseline corrected using NITPIC 2.1.5 (10, 11). Integrated data was globally analyzed in SEDPHAT 15.b (12) using a model considering a single class of binding sites. […]
10% Lithium dodecyl sulfate, 50% glycerol, 50mM DTT, 0.05% Bromophenol blue) and then heated […]
For deAMPylation assays with FicD and BiP, Δ26hBiPT229A was in-vitro AMPylated by […]
5mM MgCl2, 500uM ATP, 0.5% CHAPS, 1mM DTT. After one hour of incubation at 30-37C, the entire reaction mix was transferred into an Amicon 0.5mL 50kDa MWCO concentrator (cat no.
7.4/150mM NaCl/10% glycerol/1mM DTT was added to the concentrated AMPylation reaction and then spun down again at 14,000 x g at 4C for 5-10 minutes. This step was repeated four times to buffer exchange AMPylated Δ26hBiPT229A.
Δ104hFicDWT and Δ26hBiPT229A-AMP were combined at a ratio of 1:80 in buffer containing 25mM HEPES pH 7.4, 100mM KCl, 5mM MgCl2, 1mM DTT and the indicated small molecule where applicable. Reactions were incubated at 37C for 1 hour and stopped by the addition EDTA. 5X SDS sample buffer (250mM Tris pH 6.8, 10% Lithium dodecyl sulfate, 50% glycerol, 50mM DTT, 0.05% Bromophenol blue) was then added to the reactions and reactions were heated for 5 minutes at […]
For in-vitro AMPylation assays with VopS and CDC42, Δ30VopS and GST-CDC42 – provided by a previous lab member – were combined at a 1:80 molar ratio in 50mM Tris pH 7.4/100mM NaCl/1mM DTT in the presence of GPP or FPP, where applicable. […]

Structure (SMILES): CC(C)=CCC/C(C)=C/CC/C(C)=C/COP(=O)(O)OP(=O)(O)O [FPP, farnesyl-pyrophosphate]
- stoichiometry of binding to FicD (ITC): < 0.85
